In ChEMBL document CHEMBL4476882, “Inhibitors of nedd8-activating enzyme” (2013):
One block for each compound: values may come before it. Activity calls are given as the source filed them. The rule behind the calls is not given here.

Assays:
NEDD8 activating enzyme = target: T1, NEDD8 activating enzyme (Homo sapiens, UniProt Q8TBC4); assay: Inhibition of recombinant human NAE using GST-tagged Ubc12 and Flag-tagged Nedd8 incubated for 105 mins by HTRF assay; assay type: protein-complex assay
T1 sequence (Q8TBC4 whole entry): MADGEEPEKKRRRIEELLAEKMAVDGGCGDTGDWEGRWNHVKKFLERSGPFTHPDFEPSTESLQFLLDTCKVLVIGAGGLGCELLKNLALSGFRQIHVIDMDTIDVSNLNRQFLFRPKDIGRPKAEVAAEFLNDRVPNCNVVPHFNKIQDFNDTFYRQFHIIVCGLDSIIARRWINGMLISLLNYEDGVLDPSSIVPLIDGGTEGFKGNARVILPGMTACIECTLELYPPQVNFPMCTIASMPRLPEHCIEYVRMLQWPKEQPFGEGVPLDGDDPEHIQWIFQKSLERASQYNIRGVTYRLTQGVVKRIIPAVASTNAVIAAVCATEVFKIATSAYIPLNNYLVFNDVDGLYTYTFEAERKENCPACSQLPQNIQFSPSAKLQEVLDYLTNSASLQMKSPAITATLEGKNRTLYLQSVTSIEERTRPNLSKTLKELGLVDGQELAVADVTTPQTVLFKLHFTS
T1 sequence (Q13564 whole entry): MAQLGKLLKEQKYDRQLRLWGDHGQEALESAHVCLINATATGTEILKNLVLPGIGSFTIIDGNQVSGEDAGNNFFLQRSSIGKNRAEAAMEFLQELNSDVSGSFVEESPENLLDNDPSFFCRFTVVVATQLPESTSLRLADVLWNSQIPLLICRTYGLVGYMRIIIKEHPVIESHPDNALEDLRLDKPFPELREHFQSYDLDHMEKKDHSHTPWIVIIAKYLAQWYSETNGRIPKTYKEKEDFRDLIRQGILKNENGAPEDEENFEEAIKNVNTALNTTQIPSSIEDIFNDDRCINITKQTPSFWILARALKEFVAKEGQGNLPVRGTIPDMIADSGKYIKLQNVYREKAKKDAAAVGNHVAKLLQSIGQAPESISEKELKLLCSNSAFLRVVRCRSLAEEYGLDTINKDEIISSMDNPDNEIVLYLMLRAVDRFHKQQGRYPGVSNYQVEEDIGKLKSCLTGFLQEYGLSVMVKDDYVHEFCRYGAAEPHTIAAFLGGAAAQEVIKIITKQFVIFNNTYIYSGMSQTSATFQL

Mus musculus [1] = assay: Inhibition of NAE in female Ncr nude mouse bearing HCT116 tumor xenografts assessed as increase in Nedd8-Cullin levels at 30 mg/kg, sc dosed as single administration measured up to 24 hrs post dose; assay type: functional, organism-based
[2] = AUC (last) in plasma of female Ncr nude mouse bearing HCT116 tumor xenografts at 30 mg/kg, sc dosed as single administration measured up to 24 hrs post dose; assay type: ADME, organism-based; design: dose 30 mg/kg, time 0 - last, route subcutaneous
[3] = Cmax in plasma of female Ncr nude mouse bearing HCT116 tumor xenografts at 30 mg/kg, sc dosed as single administration measured up to 24 hrs post dose; assay type: ADME, organism-based; design: dose 30 mg/kg, route subcutaneous
Mus musculus [4] = assay: Inhibition of NAE in female Ncr nude mouse bearing HCT116 tumor xenografts assessed as increase in Nedd8-Cullin levels at 10 mg/kg, sc dosed as single administration measured up to 24 hrs post dose; assay type: functional, organism-based
[5] = AUC (last) in plasma of female Ncr nude mouse bearing HCT116 tumor xenografts at 10 mg/kg, sc dosed as single administration measured up to 24 hrs post dose; assay type: ADME, organism-based; design: dose 10 mg/kg, time 0 - last, route subcutaneous
[6] = Cmax in plasma of female Ncr nude mouse bearing HCT116 tumor xenografts at 10 mg/kg, sc dosed as single administration measured up to 24 hrs post dose; assay type: ADME, organism-based; design: dose 10 mg/kg, route subcutaneous

IC50 (NEDD8 activating enzyme): > 10000 nM
Structure (SMILES): NS(=O)(=O)OC[C@@H]1C[C@@H](Oc2cc(N[C@H]3CCc4ccccc43)ncn2)C[C@@H]1O

IC50 (NEDD8 activating enzyme): ≤ 500 nM
Structure (SMILES): NS(=O)(=O)OC[C@H]1C[C@@H](Nc2ncnc(N[C@H]3CCc4ccccc43)n2)[C@H](O)[C@@H]1O

IC50 (NEDD8 activating enzyme): ≤ 500 nM
Structure (SMILES): COc1cccc(-c2nc3c(N[C@@H]4C[C@@H](COS(N)(=O)=O)[C@@H](O)C4)ncnc3[nH]2)c1OC

IC50 (NEDD8 activating enzyme): ≤ 500 nM
Structure (SMILES): CO[C@H]1CCc2ccccc2C1Nc1cc(O[C@H]2CC(O)[C@H](COS(N)(=O)=O)C2)ncn1 (single isomer, unassigned)

IC50 (NEDD8 activating enzyme): 500 to 10000 nM
Structure (SMILES): CN(C)C(=O)[C@H]1Cc2ccccc2[C@H]1Nc1cc(O[C@@H]2C[C@@H](COS(N)(=O)=O)[C@@H](O)C2)ncn1

Second part, the compound before the results:

Structure (SMILES): NS(=O)(=O)OC[C@@H]1C[C@@H](Nc2ncnc3[nH]c(-c4ccc(Cl)cc4)nc23)C[C@@H]1O
IC50 (NEDD8 activating enzyme): ≤ 500 nM

Structure (SMILES): Cc1c(N[C@H]2CCc3ccccc32)ncnc1O[C@@H]1C[C@@H](COS(N)(=O)=O)[C@@H](O)C1
IC50 (NEDD8 activating enzyme): ≤ 500 nM

Structure (SMILES): COc1ccccc1-c1nc2c(N[C@@H]3C[C@@H](COS(N)(=O)=O)[C@@H](O)C3)ncnc2[nH]1
IC50 (NEDD8 activating enzyme): ≤ 500 nM

Structure (SMILES): CO[C@H]1Cc2cc(Cl)ccc2C1Nc1cc(O[C@@H]2CC(COS(N)(=O)=O)[C@@H](O)C2)ncn1 (single isomer, unassigned)
inhibition (Mus musculus [1]): Active
AUC(0-t) at 24 h [2]: 54.8 µM·h
Cmax [3]: 24.2 µM
inhibition (Mus musculus [4]): Active
AUC(0-t) at 24 h [5]: 24.5 µM·h
Cmax [6]: 10.4 µM

Structure (SMILES): CO[C@H]1Cc2ccccc2[C@H]1Nc1cc(O[C@@H]2C[C@@H](COS(N)(=O)=O)[C@@H](O)C2)ncn1
inhibition (Mus musculus [1]): Active
AUC(0-t) at 24 h [2]: 26.3 µM·h
Cmax [3]: 27.1 µM
